Reference: patent US8802702B2, “Compounds for reducing drug resistance and uses thereof” (The General Hospital Corporation, priority 2009, dated 2014)
Entries after “also recorded” stand apart in the source; their conditions may differ.

Experiments:
SKOV-3 and OVCAR8 cells = test: Calcein AM drug efflux assay in parental drug-sensitive cells; type: cell-based, human; conditions: SKOV-3 and OVCAR8, do not overexpress Pgp1
From the text: The VYBRANT™ multi-drug resistance assay kit (Invitrogen/Molecular Probes) was used to measure drug efflux properties of different resistant cell lines. This assay utilizes the fluorogenic dye calcein acetoxymethyl ester (calcein AM) as a substrate for efflux activity of Pgp1 or other membrane pump ABC proteins. Calcein AM is taken up by cells and hydrolyzed by cytoplasmic esterases to fluorescent calcein. Calcein AM is well retained in the cytosol. However, multi-drug resistant cells expressing high levels of Pgp1 rapidly extrude non-fluorescent calcein AM from the plasma membrane, reducing accumulation of fluorescent calcein in the cytosol. Drug sensitive and resistant cells (3×10^5) were cultured in 96-well plate for 24 hours and then incubated in 0.25 μM calcein AM in 150 μl total volume. After 30 minutes, the cells in plate were washed and centrifuged twice with 200 μl cold RPMI1640 culture medium, and cell fluorescence was measured at a […] on a SPECTRAMAX™ Microplate Spectrofluorometer (Molecular Devices).

[1] = tested on: MDR cell lines where MDR1 (Pgp1) is highly expressed; test: Reversal of chemoresistance across panel of MDR cell lines with various anti-cancer agents
Procedure: Screening conditions in drug resistant cells were optimized in 96-well plates for optimal growth conditions, small molecular compound and drug concentration and assay times prior to screening. On day 1, drug resistant cells were seeded at 2×10^4 cells/well on 96-well plates and labeled with plates A, B, and incubated for 24 hr at 37° C. On day 2, plate A was treated with a test compound at 1 μM to each well without paclitaxel; Plate B was treated with both a test compound and paclitaxe at specifically prescribed concentrations. From day 4 to day 6, fresh medium was replaced with necessity as described above and evaluated for cytotoxicity under the microscope. On Day 6, the number of viable cells was evaluated for cytotoxicity in any wells under the microscope manually and final results were determined via […]96™ AQ One Solution Cell Cytotoxicity Assay (Promega, Madison, Wis.) by a SPECTRAIVIAX.™ Microplate Spectrophotometer (Molecular Devices, Sunnyvale, Calif.).
The general format was designed for screening the small molecular compound library and identifying novel drug resistant inhibitor. These include evaluation of each small molecular compound through a well studied multidrug resistant cell line SKOV-3TR. The experiments were conducted in two control plates (A and B) and one experimental plate (C) to permit plate-to-plate comparisons (FIG. 1). The control plates (plate A and B) were used to evaluate cytotoxicity of paclitaxel and small molecular compound itself, and to exclude compound that were lethal to the cells in the absence of chemotherapy drug. […] because the goal of this study was to identify small molecular compound that can reverse drug resistance and not to determine cell toxicity. […] Small molecular compound that were associated with cell survival in plate A and plate B and death in plate C were identified as “hits” and selected for further study.
Furthermore, other cell lines with non-Pgp1 mediated MDR mechanisms were tested (H69/AR cells that express MRP1, but not Pgp1, and MCF-7 MX cells that express BCRP, but not Pgp1) to evaluate the specificity of NSC23925.

[2] = tested on: SKOV-3 and SKOV-3TR cells; test: Cytotoxicity of NSC23925 alone (MTT assay), SKOV-3/SKOV-3TR; type: cell-based, human
Procedure: Drug cytotoxicity was determined by MTT assay. […] Cells were treated with the NSC23925 in RPMI1640 complete media at the indicated concentrations. The relative sensitivity of each line to NSC23925 was determined by MTT assay. A: Nonspecific toxicity of NSC23925 on SKOV3 vs SKOV-3TR. B: Nonspecific toxicity of NSC23925 on OVCAR8 vs OVCAR8TR. Drug cytotoxicity was assessed in vitro using the MTT assay. SKOV-3 and SKOV-3TR cells were used herein. Briefly, 2×10^3 cells per well were plated in 96-well plates in culture medium (RPMI 1640 supplemented with 10% fetal bovine serum and penicillin/streptomycin) containing increasing concentrations of drug. […] The resulting formazan product was dissolved with acid-isopropanol and the absorbance at a wavelength of 490 nm (A490) was read on a SPECTRAmax® Microplate Spectrophotometer (Molecular Devices, Sunnyvale, Calif.). The absorbance values were normalized by assigning the value of the control line in the medium without drug to 1.0 and the value of the no cell control to 0. Experiments were performed in triplicate.

[3] = tested on: Pgp1 mediated transport in SKOV-3TR cells; test: Duration of MDR reversal after incubation and washout; type: cell-based, human; conditions: overnight exposure 1 μM
Procedure: Drug cytotoxicity was determined by MTT assay.
The cells were then incubated for 4 days with addition of varying concentrations of paclitaxel. Final results were determined by MTT assay as described above.

[4] = tested on: H69/AR cells (express MRP1, not Pgp1); test: Reversal of drug resistance in non-Pgp1 MDR cells expressing MRP1; type: cell-based, human
[5] = value = anti-cancer drug used in conjunction

COc1ccc(-c2cc(C(O)C3CCCCN3)c3ccccc3n2)cc1 (stereo not shown) [NSC23925, (2-(4-methoxyphenyl)quinolin-4-yl)(piperidin-2-yl)methanol]
Effect on accumulation of calcein AM in parental drug-sensitive cells (SKOV-3 and OVCAR8 cells): no evident effect
Reversal of chemoresistance in tumor types where MDR1 is highly expressed ([1]; SKOV-3TR, OVCAR8TR, MCF-7TR, MESSA/Dx5, KHOS R2, U-2OSDR): reverses chemoresistance
Effect on cytotoxicity of cisplatin and methotrexate ([1]; agents unaffected by MDR1 mechanisms): did not alter the cytotoxicity
Reverse Drug Resistance by NSC23925: Decreased drug resistance (to the anti-cancer drug named in the cell) [1, 5]: Vincristine; also recorded: Gemcitabine; also recorded: ET-743; also recorded: PM00104; also recorded: Paclitaxel; also recorded: Docetaxel; also recorded: Doxorubicin; also recorded: Daunorubicin
Reverse Drug Resistance by NSC23925: No effect (on the anti-cancer drug named in the cell) [1, 5]: Cisplatin; also recorded: Carboplatin; also recorded: Topotecan; also recorded: Methotrexate
Reversal of chemoresistance in conjunction with anti-cancer agents ([1]; with paclitaxel, docetaxel, doxorubicin, daunorubicin, gemcitabine, vincristine, ET-743 or PM00104): significant reversal of chemoresistance
Cytotoxic effect of NSC23925 alone in parental SKOV-3 ([2]; <5-10 μM NSC23925 alone, cells lack Pgp1): no cytotoxic effect
IC50 ([2]; Homo sapiens, SKOV-3/SKOV-3TR, single agent, read-out: IC50 for NSC23925 (proliferation)): 8 µM
Effect of verapamil on the cytotoxic effect of NSC23925 ([2]; Pgp1-overexpressing SKOV-3TR cells, 72 hours, MTT): did not influence the cytotoxic effect
Doses at which NSC23925 by itself is noncytotoxic ([2]; both sensitive and resistant cell lines): up to 10 μM
Pgp1 transport substrate status ([2]; concluded from matched cell line IC50s and verapamil co-treatment): not a substrate of Pgp1
Duration of inhibition of Pgp1 mediated transport after wash-out [3]: at least 4 days
Reversal of drug resistance in H69/AR cells [4]: unable to reverse drug resistance
